From publication PMC8584173, “The Cytotoxic Effect of Copper (II) Complexes with Halogenated 1,3-Disubstituted Arylthioureas on Cancer and Bacterial Cells” (International Journal of Molecular Sciences, 2021)

What was measured:
[1] = tested on: hospital S. aureus (MRSA); assay: MIC, hospital S. aureus; format: cell-based, Staphylococcus aureus; conditions: all evaluated hospital S. aureus
Experimental: The antimicrobial activity of the compounds was tested on Gram-positive bacteria (Staphylococcus aureus NCTC 4163, Staphylococcus aureus ATCC 25923, Staphylococcus aureus ATCC 6538, Staphylococcus aureus ATCC 29213, Staphylococcus epidermidis ATCC 12228, Staphylococcus epidermidis ATCC 35984), Gram-negative rods (Escherichia coli ATCC 10538, Escherichia coli ATCC 25922, Pseudomonas aeruginosa ATCC 15442, Pseudomonas aeruginosa ATCC 27863) and yeasts (Candida albicans ATCC 10231, Candida albicans ATCC 90028, Candida parapsilosis ATCC 22019). Hospital methicillin-resistant strains of Staphylococcus aureus and Staphylococcus epidermidis were obtained from the collection of the Department of Pharmaceutical Microbiology, Medical University of Warsaw, Poland.
Antifungal activities were assessed using Mueller–Hinton agar + 2% glucose and 0.5 µg/mL methylene blue dye medium. Sterile filter paper discs (9 mm diameter, Whatman Number 3 chromatography paper) were dripped with tested compound solutions (in dimethylsulfoxide, DMSO) to load 400 μg of a given compound per disc. Dry discs were placed on the surface of appropriate agar medium. The results (diameter of the growth inhibition zone) were read after 18 h of incubation at 35 °C. Minimal inhibitory concentration (MIC) was tested by the twofold serial microdilution method (in 96-well microtiter plates) using Mueller–Hinton broth medium (Beckton Dickinson) for bacteria or RPMI-1640 medium for Candida species, according to CLSI guidelines. The stock solution of tested agent was prepared in DMSO and diluted in sterile water. […] The final inoculum of all studied microorganisms was 10^5 CFU/ mL^−1 (colony forming units per ml). Minimal inhibitory concentrations (the lowest concentration of a tested agent that prevents visible growth of a microorganism) were read after 18 h (bacteria) or 24 h (yeasts) of incubation at 35 °C.

[2] = tested on: Thioredoxin-dependent peroxide reductase, mitochondrial (PRDX3_HUMAN); assay: LC–MS proteome analysis, PRDX3; format: cell-based, Homo sapiens; conditions: IC50 concentration, % of control
Experimental: (§1) Enzymes involved in oxidoreductive potential were analyzed in the cell lysates obtained after treatment cells with selected conjugates for 24 h. Cells were washed with phosphate-buffered saline (PBS) and harvested, then centrifuged at 1000× g for 10 min. Then, lysis buffer (containing protease inhibitor, 1% RIPA Lysis and Extraction Buffer (ThermoFisher)) and cold PBS were added, and samples were sonicated three times in ice bath. Next, the cell lysates were centrifuged at 14,000× g at 4 °C for 15 min, and then supernatants were stored at […] before use. Protein concentration was measured by the Bradford method.
(§2) Normalized protein concentrations (5 µg) from cell lysate were precipitated by ice cold (–20 °C) acetonitrile (ACN, Merck, in ratio 1:4). Then, samples were centrifuged (–9 °C, 30 min., 18,000× g), the supernatant was discarded and ACN excess was evaporated using a vacuum centrifuge (5 min., room temp.). Protein pellet was dissolved in 40 mM ammonium bicarbonate. An amount of 500 mM dithiothreitol (DTT, with final concentration 20 mM) and 1 M iodoacetamide (IAA, with final concentration 40 mM) were used for reduction and alkylation processes. After 16 h of incubation in 37 °C with Trypsin Gold (Promega), digested protein samples were diluted with 0.1% formic acid (ThermoFisher) and centrifuged (+2 °C, 30 min, 18,000× g).
(§3) LC–MS analysis was carried out with the use of nanoUHPLC (nanoElute, Bruker) coupled by CaptiveSpray (Bruker) to ESI-Q-TOF mass spectrometer (Compact, Bruker). Two-column separation method was used, i.e., pre-column (300 µm × 5 mm, C18 PepMap 100, 5 µm, 100Å, Thermo Scientific) and Aurora separation column with CSI fitting (75 µm × 250 mm, C18 1.6 µm) in gradient 2% B to 35% B in 90 min with the 300 nL/min flow rate. Mobile phases (A) 0.1% formic acid in water and (B) 0.1% formic acid in ACN were used.
(§4) Sample ionizations were performed at a gas flow of 3.0 L/min, temperature of 150 °C and voltage of the capillary at 1600 V. The quadrupole energy was fixed to 5.0 eV and collision chamber energy 7.0 eV, with an ion transfer time of 90 µs. The ions were analyzed in the positive polarity mode in the range 150–2200 m/z, with the acquisition frequency of the 1 Hz spectrum, as well as with the autoMS/MS system.
(§5) The collected spectra were analyzed and calibrated using DataAnalysis software (Bruker) and then identified in ProteinScape (Bruker) by the MASCOT server. Protein identification was conducted using the online SwissProt and NCBIprot databases, and their references and biological significance were identified using Reactome.org, String.org and KEGG.

SW480 cells = assay: Annexin V-FITC/PI flow cytometry, SW480; format: cell-based, human; conditions: SW480, IC50 dose, 72 h
Experimental: (§6) The cells were cultured and harvested under the conditions described in the cell culture section. […] The effect of these compounds on the process of early and late apoptosis and necrosis was determined, as described previously, by dual staining with annexin V-FITC and propidium iodide according to manufacturer’s protocol (Becton Dickinson). The cells that were annexin V-FITC positive and PI-negative were identified as early apoptotic and annexin V-FITC and PI-positive as late apoptotic or necrotic.

[3] = tested on: Peroxiredoxin-4 (PRDX4_HUMAN); assay: LC–MS proteome analysis, PRDX4; format: cell-based, Homo sapiens; conditions: IC50 concentration, % of control
Experimental: as §1, §2, §3, §4, §5

[4] = tested on: Glutathione reductase, mitochondrial (GSHR_HUMAN); assay: LC–MS proteome analysis, GSHR; format: cell-based, Homo sapiens; conditions: IC50 concentration, % of control
Experimental: as §1, §2, §3, §4, §5

interleukin-6 (IL-6) = assay: IL-6 level assay (ELISA); format: cell-based, human; conditions: SW480, IC50 dose, 72 h, vs control
Experimental: IL-6 concentration at all studied cancer cells and normal HaCaT cell lines was measured by ELISA kit (Diaclon SAS Besancon Cedex, France). […] IL-6 in cell culture supernatant was measured using enzyme-linked immunosorbent assay in accordance with the manufacturer’s protocol.

[5] = tested on: Superoxide dismutase [Cu-Zn] (SODC_HUMAN); assay: LC–MS proteome analysis, SODC; format: cell-based, Homo sapiens; conditions: IC50 concentration, % of control
Experimental: as §1, §2, §3, §4, §5

[6] = tested on: Peroxiredoxin-6 (PRDX6_HUMAN); assay: LC–MS proteome analysis, PRDX6; format: cell-based, Homo sapiens; conditions: IC50 concentration, % of control
Experimental: as §1, §2, §3, §4, §5

PC3 cells = assay: Annexin V-FITC/PI flow cytometry, PC3; format: cell-based, human; conditions: PC3, IC50 dose, 72 h
Experimental: as §6

In the case of `O=[N+]([O-])c1cc([N+]2=C(Nc3ccc(Br)cc3)[S][Cu-2]23[S]C(Nc2ccc(Br)cc2)=[N+]3c2ccc(Cl)c([N+](=O)[O-])c2)ccc1Cl` [Compound 3, Copper (II) complex with 1-(4-bromophenyl)-3-(4-chloro-3-nitrophenyl)thiourea], the MIC [1] is reported as 4 µg/mL, the “Protein Intensity, % (PRDX3)” value ([2]; PC3, 24 h) is reported as 57.3% and the “Protein Intensity, % (PRDX3)” value ([2]; SW480, 24 h) is reported as 85.4%. For the same compound, the “Protein Intensity, % (PRDX3)” value ([2]; SW620, 24 h) was 67.5%, the “early apoptosis, % of cells” value (SW480 cells) was ≤ 40% and the “Protein Intensity, % (PRDX4)” value ([3]; PC3, 24 h) was 61.1%. For the same compound, the “Protein Intensity, % (PRDX4)” value ([3]; SW480, 24 h) was 60.1%, the “Protein Intensity, % (PRDX4)” value ([3]; SW620, 24 h) was 76.4% and the “Protein Intensity, % (GSHR)” value ([4]; PC3, 24 h) was 58.9%. The “Protein Intensity, % (GSHR)” value ([4]; SW480, 24 h) was 63.1%, the “Protein Intensity, % (GSHR)” value ([4]; SW620, 24 h) was 79.2% and the “decrease of IL-6 level” value (interleukin-6 (IL-6)) was ≤ 30%. The “Protein Intensity, % (SODC)” value ([5]; PC3, 24 h) was 30.9%, the “Protein Intensity, % (SODC)” value ([5]; SW480, 24 h) was 75.3% and the “Protein Intensity, % (SODC)” value ([5]; SW620, 24 h) was 78.2%. For the same compound, the “Protein Intensity, % (PRDX6)” value ([6]; PC3, 24 h) was 71.1%, the “Protein Intensity, % (PRDX6)” value ([6]; SW480, 24 h) was 81.3% and the “Protein Intensity, % (PRDX6)” value ([6]; SW620, 24 h) was 66.4%. The “early apoptosis, % of cells” value (PC3 cells) was 45.5% ± 3.5%.
